# Assay results taken from PubChem BioAssay (NCI).
#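 1) Cells in 96-well plates. 2) Compound, 48 h, 5 concentrations. 3) Linear interpolation between surrounding doses. 4) Unreached endpoint = highest concentration. GI50 = concentration required for 50% inhibition of growth. TGI denotes the concentration required for complete inhibition of growth.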
# Assays:
# Assay in all cases: NCI tumour cell line growth inhibition, 48 h
# HCT-15 colon = system: HCT-15 colon
# SN12C renal = system: SN12C renal
# HS 578T breast = system: HS 578T breast
# U251 CNS = system: U251 CNS
# SF-295 CNS = system: SF-295 CNS
# PC-3 prostate = system: PC-3 prostate
# LOX IMVI melanoma = system: LOX IMVI melanoma
# NCI-H226 lung = system: NCI-H226 lung
# SR leukemia = system: SR leukemia
# SK-MEL-28 melanoma = system: SK-MEL-28 melanoma
# OVCAR-4 ovarian = system: OVCAR-4 ovarian
# MDA-MB-231 breast = system: MDA-MB-231 breast
# UO-31 renal = system: UO-31 renal
# EKVX NSCLC = system: EKVX NSCLC
# HL-60(TB) leukemia = system: HL-60(TB) leukemia
# SK-OV-3 ovarian = system: SK-OV-3 ovarian
# KM12 colon = system: KM12 colon
# SF-539 CNS = system: SF-539 CNS
# CAKI-1 renal = system: CAKI-1 renal
# DU-145 prostate = system: DU-145 prostate
# UACC-62 melanoma = system: UACC-62 melanoma
# MOLT-4 leukemia = system: MOLT-4 leukemia
# SNB-75 CNS = system: SNB-75 CNS
# MCF7 breast = system: MCF7 breast
# HOP-62 NSCLC = system: HOP-62 NSCLC
# SW-620 colon = system: SW-620 colon
# T-47D breast = system: T-47D breast
# NCI-H23 lung = system: NCI-H23 lung
# SNB-19 CNS = system: SNB-19 CNS
# K-562 leukemia = system: K-562 leukemia
# RXF 393 renal = system: RXF 393 renal
# HCT-116 colon = system: HCT-116 colon
# TK-10 renal = system: TK-10 renal
# NCI-H460 lung = system: NCI-H460 lung
# IGROV1 ovarian = system: IGROV1 ovarian
# A498 renal = system: A498 renal
# MDA-MB-435 = system: MDA-MB-435
# M14 melanoma = system: M14 melanoma
# SF-268 CNS = system: SF-268 CNS
# RPMI-8226 leukemia = system: RPMI-8226 leukemia
# NCI/ADR-RES ovarian = system: NCI/ADR-RES ovarian
# OVCAR-8 ovarian = system: OVCAR-8 ovarian
# A549 NSCLC = system: A549 NSCLC
# HT29 colon = system: HT29 colon
# HOP-92 NSCLC = system: HOP-92 NSCLC
# HCC-2998 colon = system: HCC-2998 colon
# OVCAR-3 ovarian = system: OVCAR-3 ovarian
# SK-MEL-2 melanoma = system: SK-MEL-2 melanoma
# BT-549 breast = system: BT-549 breast
# 786-0 renal = system: 786-0 renal
# SK-MEL-5 melanoma = system: SK-MEL-5 melanoma
# COLO 205 colon = system: COLO 205 colon
# UACC-257 melanoma = system: UACC-257 melanoma
# NCI-H522 lung = system: NCI-H522 lung
# OVCAR-5 ovarian = system: OVCAR-5 ovarian
structure (smiles),measurement,setting,value
COC(=O)c1cccc(NC(=O)c2ccc(NC3=C(Cl)C(=O)N(Cc4ccccc4)C3=O)cc2)c1,GI50,HCT-15 colon,2.29 µM
same,TGI,HCT-15 colon,17.5 µM
same,GI50,SN12C renal,4.69 µM
same,TGI,SN12C renal,23.6 µM
same,GI50,HS 578T breast,22 µM
same,TGI,HS 578T breast,69.4 µM
same,GI50,U251 CNS,12.7 µM
same,TGI,U251 CNS,28.3 µM
same,GI50,SF-295 CNS,17.6 µM
same,TGI,SF-295 CNS,57.8 µM
same,GI50,PC-3 prostate,15.1 µM
same,TGI,PC-3 prostate,28.3 µM
same,GI50,LOX IMVI melanoma,1.76 µM
same,TGI,LOX IMVI melanoma,16.2 µM
same,GI50,NCI-H226 lung,7.25 µM
same,TGI,NCI-H226 lung,35.2 µM
same,GI50,SR leukemia,1.87 µM
same,TGI,SR leukemia,7.56 µM
same,GI50,SK-MEL-28 melanoma,15.2 µM
same,TGI,SK-MEL-28 melanoma,52 µM
same,GI50,OVCAR-4 ovarian,16.1 µM
same,TGI,OVCAR-4 ovarian,56.1 µM
same,GI50,MDA-MB-231 breast,10.7 µM
same,TGI,MDA-MB-231 breast,32.1 µM
same,GI50,UO-31 renal,1.7 µM
same,TGI,UO-31 renal,3.31 µM
same,GI50,EKVX NSCLC,23.6 µM
same,TGI,EKVX NSCLC,63.6 µM
same,GI50,HL-60(TB) leukemia,16.8 µM
same,TGI,HL-60(TB) leukemia,38.8 µM
same,GI50,SK-OV-3 ovarian,84 µM
same,TGI,SK-OV-3 ovarian,> 100 µM
same,GI50,KM12 colon,19.7 µM
same,TGI,KM12 colon,41.7 µM
same,GI50,SF-539 CNS,14.7 µM
same,TGI,SF-539 CNS,29.5 µM
same,GI50,CAKI-1 renal,1.72 µM
same,TGI,CAKI-1 renal,3.14 µM
same,GI50,DU-145 prostate,7.9 µM
same,TGI,DU-145 prostate,25.2 µM
same,GI50,UACC-62 melanoma,11.7 µM
same,TGI,UACC-62 melanoma,25.4 µM
same,GI50,MOLT-4 leukemia,12.5 µM
same,TGI,MOLT-4 leukemia,56.5 µM
same,GI50,SNB-75 CNS,18.3 µM
same,TGI,SNB-75 CNS,62.6 µM
same,GI50,MCF7 breast,22.3 µM
same,TGI,MCF7 breast,49.7 µM
same,GI50,HOP-62 NSCLC,15.1 µM
same,TGI,HOP-62 NSCLC,35.4 µM
same,GI50,SW-620 colon,22.3 µM
same,TGI,SW-620 colon,86.5 µM
same,GI50,T-47D breast,4.46 µM
same,TGI,T-47D breast,63.3 µM
same,GI50,NCI-H23 lung,8.57 µM
same,TGI,NCI-H23 lung,22.4 µM
same,GI50,SNB-19 CNS,28.5 µM
same,TGI,SNB-19 CNS,> 100 µM
same,GI50,K-562 leukemia,21.3 µM
same,TGI,K-562 leukemia,52.7 µM
same,GI50,RXF 393 renal,13.9 µM
same,TGI,RXF 393 renal,60.2 µM
same,GI50,HCT-116 colon,3.49 µM
same,TGI,HCT-116 colon,14.9 µM
same,GI50,TK-10 renal,23.4 µM
same,TGI,TK-10 renal,63.4 µM
same,GI50,NCI-H460 lung,30.2 µM
same,TGI,NCI-H460 lung,84.6 µM
same,GI50,IGROV1 ovarian,0.176 µM
same,TGI,IGROV1 ovarian,3.34 µM
same,GI50,A498 renal,26.3 µM
same,TGI,A498 renal,73 µM
same,GI50,MDA-MB-435,14.3 µM
same,TGI,MDA-MB-435,34.2 µM
same,GI50,M14 melanoma,9.75 µM
same,TGI,M14 melanoma,23 µM
same,GI50,SF-268 CNS,23 µM
same,TGI,SF-268 CNS,54.9 µM
same,GI50,RPMI-8226 leukemia,10.7 µM
same,TGI,RPMI-8226 leukemia,23.9 µM
same,GI50,NCI/ADR-RES ovarian,15.9 µM
same,TGI,NCI/ADR-RES ovarian,37.6 µM
same,GI50,OVCAR-8 ovarian,11.4 µM
same,TGI,OVCAR-8 ovarian,32.1 µM
same,GI50,A549 NSCLC,17.5 µM
same,TGI,A549 NSCLC,48.7 µM
same,GI50,HT29 colon,21.1 µM
same,TGI,HT29 colon,> 100 µM
same,GI50,HOP-92 NSCLC,11 µM
same,TGI,HOP-92 NSCLC,23.4 µM
same,GI50,HCC-2998 colon,2.04 µM
same,TGI,HCC-2998 colon,3.77 µM
same,GI50,OVCAR-3 ovarian,6.45 µM
same,TGI,OVCAR-3 ovarian,25.9 µM
same,GI50,SK-MEL-2 melanoma,14.5 µM
same,TGI,SK-MEL-2 melanoma,44.2 µM
same,GI50,BT-549 breast,15.3 µM
same,TGI,BT-549 breast,31.9 µM
same,GI50,786-0 renal,10.5 µM
same,TGI,786-0 renal,25.2 µM
same,GI50,SK-MEL-5 melanoma,16.5 µM
same,TGI,SK-MEL-5 melanoma,34 µM
same,GI50,COLO 205 colon,21.4 µM
same,TGI,COLO 205 colon,> 100 µM
same,GI50,UACC-257 melanoma,15.4 µM
same,TGI,UACC-257 melanoma,50.2 µM
same,GI50,NCI-H522 lung,7.52 µM
same,TGI,NCI-H522 lung,32.8 µM
same,GI50,OVCAR-5 ovarian,3.63 µM
same,TGI,OVCAR-5 ovarian,29.4 µM
